The numbers were not newly measured in patent US20130137766A1, “Compound Used to Prevent Diseases Caused by Aquaporin Deficiency” (FU-JEN CATHOLIC UNIVERSITY, priority 2010, published 2013), which cites them from elsewhere.

In the series the test system is AQP-3. The conditions noted are these: EGF-treated groups.

Take “EGF: epidermal growth factor, literature comparator (Cong Cao et al.) (NSDSECPLSHDGYCLHDGVCMYIEALDKYACNCVVGYIGERCQYRDLKWWELR; UniProt P01133 971-1023, looked up)”: the “expression of AQP-3” value is reported as “significantly increased” and the wound healing entry is on record as “wound healing was facilitated”.
